Consider 2 molecules from PMC11758220, “Identification of a Privileged Scaffold for Inhibition of Sterol Transport Proteins through the Synthesis and Ring Distortion of Diverse, Pseudo-Natural Products” (ACS Central Science, 2025).

Data set [1] is described as follows: Stability test of spirooxepinoindole in DMSO and FP assay buffer (LC-LRMS). Type of data set: physicochemical. As to the method:
Stability test of spirooxepinoindole
The stability of the spirooxepinoindoles in dimethyl sulfoxide and in the assay buffer was tested to be […]
A sample in the FP assay buffer was prepared from the dimethyl sulfoxide stock solution of compound 15b. The dimethyl sulfoxide stock solution was prepared 2021.12.10, and the sample in the assay buffer was prepared 2022.09.28. The samples were monitored by LC-LRMS over time to look for degradation. Both acidic and basic LC-LRMS runs were used since acidic conditions could catalys e the re-condensation of potential hydrolysed spirooxepinoindoles.
Sample: Compound 15b in FP assay buffer: 20 mM HEPES, 300 mM NaCl, 0.01 %v/v Tween -20, 0.5 %v/v glycerol, 2 mM DTT. Concentration: 1.7 mM.
Figure S6: LC-LRMS trace of the stability test of spirooxepinoindole 15b in FP assay buffer measured using the acidic run. (a) UV chromatogram after zero hours, (b) UV chromatogram after four hours, (c) UV chromatogram after 20 hours, (d) MS spectrum.
LC-LRMS (ESI+) m/z: 332.0 found for [M+H]+ for 15b, 332.1 calcd. For C17H19BrNO+. […]
Figure S7: LC-LRMS trace of the stability test of spirooxepinoindole 15b in FP assay buffer measured using the basic run. (a) UV chromatogram after zero hours, (b) UV chromatogram after four hours, (c) UV chromatogram […]
for 20 hours showing no sign of degradation (Figure S6 and Figure S7). […]

A further data set concerns the target T1, STARD4 (Homo sapiens, UniProt Q96DR4, C75S).
T1 construct: STARD4(2-205; C75S); made in house; host or cells: E. coli BL21(DE3)
T1 sequence (Q96DR4 2-205 C75S): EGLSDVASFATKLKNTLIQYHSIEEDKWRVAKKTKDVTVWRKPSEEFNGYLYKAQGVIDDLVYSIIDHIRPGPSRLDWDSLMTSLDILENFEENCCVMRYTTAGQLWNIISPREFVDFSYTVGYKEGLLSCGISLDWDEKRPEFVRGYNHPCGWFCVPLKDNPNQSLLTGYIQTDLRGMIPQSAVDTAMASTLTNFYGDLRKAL
Also noted: method as in Depta et al.[43]. As to conditions: data reproduced; ref Depta et al.[43]; read-out: STARD4 Kd,app (DSF); cited from earlier work.

With `C[C@]12CC[C@@H]3C[C@H]1CC[C@@]21C(=Nc2ccc(Br)cc21)O3` (racemic) [Compound 15b], the “Stability in FP assay buffer (no sign of degradation)” value in data set [1] (20 mM HEPES, 300 mM NaCl, 0.01 %v/v Tween-20, 0.5 %v/v glycerol, 2 mM DTT, 1.7 mM) turned out to be 20 h. In addition, the “Stability in dimethyl sulfoxide (no sign of degradation)” value in data set [1] (DMSO stock solution) is “several months”. As to `CCN(CC)CCO[C@H]1CC[C@@]2(C)C(=CC[C@@H]3[C@@H]2CC[C@]2(C)C(=O)CC[C@@H]32)C1` [Compound U18666A, reference compound], the Kd on STARD4 was more than 30 µM.
